From patent US20240261236A1, “METHODS OF USING NMDA RECEPTOR ANTAGONISTS” (Seelos Therapeutics, Inc., priority 2021, published 2024)

Assays:
[1] = tested on: adults with major depressive disorder (MDD) who are at imminent risk of suicide; test: S-STS CMCM Risk of Suicide at Within the Next 7 Days; format: in vivo, human; details: 90 mg IN+SOC
From the text: The S-STS CMCM (version 01/01/19) is a clinician-rated outcome measure which assesses SI/B on a standard 22-item scale, as well as multiple patient and clinician-rated items. The first 16 items are rated on a Likert-type scale ranging from “not at all” (0 units) to “extremely” (4 units), where select scoring (i.e., 4 specific items are scored based on the highest score on 2 of those items) yields a total score ranging from 0 units to 52 units. The final 6 items are used only when the patient misses a visit and is unable to complete the scale; if that missed visit is due to attempted or completed suicide, the possible maximum score is 100. The CMCM also yields 5 different single-item global assessments: 1) subject-rated likelihood of a suicide attempt; 2) subject-rated treatment needed; 3) clinician global severity of suicidal impulses, thoughts, and behaviors; 4) clinician judgment of suicide risk at this time and level of management needed for suicidality; and 5) clinician judgment of subject's likelihood of making a suicide attempt or of dying by suicide in the next 7 days.
The secondary endpoints are the change from baseline at 24 hours, as well as at Day 16, in the following: • (1) S-STS total score • (2) MADRS Total at Day 16 (only) • (3) Clinical Global Impression (CGI) of Severity for SI/B (CGIS-SI/B) and Change in SI/B (CGIC-SI/B) • (4) Patient Global Impression (PGI) of Severity for SI/B (PGIS-SI/B) and Change in SI/B (PGIC-SI/B • (5) S-STS Clinician-Rated Global Severity of Suicidal Impulses, Thoughts, and Behaviors • (6) S-STS Clinician judgment of subject's risk of a suicide attempt or death by suicide at this time • (7) S-STS Clinician judgment of subject's likelihood (risk) of making a suicide attempt or of dying by suicide in the next 7 days • (8) S-STS Subject-rated global severity of suicidal impulses, thoughts, and behavior • (9) S-STS Subject-rated treatment needed score • (10) MADRS item 10 response rate (response ≤3 units) • (11) MADRS Total response (total score ≥50% reduction from baseline) • (12) MADRS Total remission (total score ≤12 units)

[2] = Leung and Baillie 1986; cited from earlier work
[3] = tested on: adults with major depressive disorder (MDD) who are at imminent risk of suicide; test: C-SSRS, Phase 2 Part 1; details: 90 mg IN+SOC; for C-SSRS score (yes or no) for suicidal ideation: 24 hours post-administration, baseline yes
[4] = tested on: adults with major depressive disorder (MDD) who are at imminent risk of suicide; test: MOAA/S sedation, Phase 2 Part 1
[5] = tested on: adults with major depressive disorder (MDD) who are at imminent risk of suicide; test: CADSS dissociation, Phase 2 Part 1
[6] = tested on: adults with major depressive disorder (MDD) who are at imminent risk of suicide; test: Treatment-emergent adverse events, Phase 2 Part 1

In the case of `CNC1(c2ccccc2Cl)CCCCC1=O` (racemic) [intranasal racemic ketamine, 1:1 mixture of the two enantiomers of ketamine: (R)-2-(2-chlorophenyl)-2-(methylamino)cyclohexanone and (S)-2-(2-chlorophenyl)-2-(methylamino)cyclohexanone], the “S-STS CMCM Risk of Suicide at Within the Next 7 Days score” value (“S-STS CMCM Risk of Suicide” below) ([1]; Subject 1, 24 hours post-administration, from 5 units, range 1-10) was 2 units, the “S-STS CMCM Risk of Suicide” value ([1]; Subject 2, 24 hours post-administration, baseline 7 units) was 1 unit and the “S-STS CMCM Risk of Suicide” value ([1]; the scores (Subjects 1 and 2), Day 4) was 1 unit. For the same compound, the “S-STS CMCM Risk of Suicide” value ([1]; the scores (Subjects 1 and 2), Day 8) was 0 units, the anesthetic activity [2] was “anesthetic activity” and the “C-SSRS score (yes or no) for suicidal ideation” value ([3]; Subject 1) was “no”. For the same compound, the “C-SSRS score (yes or no) for suicidal ideation” value ([3]; Subject 2) was “no”, the “C-SSRS scores for suicidal ideation and suicidal behavior” value ([3]; both subjects, remainder of the study) was “no” and the MOAA/S score ([4]; 90 mg IN+SOC, Subject 1, 15 minutes post-administration, pre-dose 5 units) was 4 units. The MOAA/S score ([4]; 90 mg IN+SOC, Subject 1, 30 minutes) was 5 units, the MOAA/S score ([4]; 90 mg IN+SOC, Subject 2, throughout the trial) was 5 units and the sedation ([4]; 90 mg IN+SOC, Subjects 1 and 2, in contrast to intranasal (S)-ketamine) was “little to no sedation”. For the same compound, the “subjects with MOAA/S score of 5 units at all time-points” value ([4]; Day 1) was 5 of 7 subjects, the “MOAA/S score (no one had a score below)” value ([4]; Day 1, 7 subjects) was at least 4 units and the CADSS score ([5]; 90 mg IN+SOC, Subject 1, all assessments, threshold for dissociation >4 units) was “zero”. For the same compound, the CADSS score ([5]; 90 mg IN+SOC, Subject 2, 40 minutes post-administration) was 2 units, the CADSS score ([5]; 90 mg IN+SOC, Subject 2, 1 hour post-administration) was “zero” and the clinically relevant dissociation ([5]; 90 mg IN+SOC, Subjects 1 and 2) was “neither subject exhibited clinically relevant dissociation”. For the same compound, the “clinically meaningful sedation or dissociation” value ([5]; 90 mg IN+SOC, entire patient cohort to the Day 29/30 endpoint) was “no clinically meaningful sedation or dissociation”, the “CADSS change from baseline (at 40 minutes)” value (“CADSS change from baseline” for short) ([5]; Day 4 (after second dose)) was 2.3 and the “CADSS change from baseline” value ([5]; Day 8 (after third dose)) was 0.4. For the same compound, the “subjects with no dissociation (total CADSS score >4 units = dissociation)” value ([5]; Days 1 and 4) was “four”, the subjects reporting dissociation ([5]; after Day 4 (on Day 11 at 40 minutes), 7 subjects) was 1 subject and the “CADSS change from baseline” value ([5]; after first dose) was 3.8. For the same compound, the serious adverse events ([6]; 90 mg IN+SOC, Part 1) was “no serious adverse events”, the “severity of adverse events” value ([6]; 90 mg IN+SOC, Part 1) was “mild or moderate” and the “subjects who experienced a treatment-emergent adverse event (TEAE)” value ([6]; 17 subjects) was 47%. For the same compound, the tolerability ([6]; Part 1) was “well tolerated”, the “vital sign or blood pressure-related AEs” value ([6]; Part 1) was “no vital sign or blood pressure-related AEs were reported” and the TEAE feeling abnormal ([6]; n=2) was 11.8%. For the same compound, the TEAE nausea ([6]; n=2) was 11.8%, the TEAE sedation ([6]; n=2) was 11.8% and the TEAE dizziness ([6]; n=3) was 17.6%. It also gave a TEAE headache ([6]; n=4) of 23.5%.
